# Reference: PubChem BioAssay (NCI)
#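 48-hour exposure; five concentrations; linearly interpolated endpoints. The concentration for full growth arrest is given as TGI.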
# Assays:
# Assay in all cases: growth of human tumour cells (NCI), 48 h
# [1] = system: PC-3 prostate
# [2] = system: HCT-15 colon
# [3] = system: RXF 393 renal
# [4] = system: HT29 colon
# [5] = system: SW-620 colon
# [6] = system: M14 melanoma
# [7] = system: CAKI-1 renal
# [8] = system: COLO 205 colon
# [9] = system: SK-MEL-2 melanoma
# [10] = system: T-47D breast
# [11] = system: MDA-N
# [12] = system: A549 NSCLC
# [13] = system: CCRF-CEM leukemia
# [14] = system: SK-MEL-5 melanoma
# [15] = system: OVCAR-3 ovarian
# [16] = system: HS 578T breast
# [17] = system: SR leukemia
# [18] = system: SF-295 CNS
# [19] = system: MALME-3M melanoma
# [20] = system: KM12 colon
# [21] = system: UACC-62 melanoma
# [22] = system: SF-268 CNS
# [23] = system: SN12C renal
# [24] = system: TK-10 renal
# [25] = system: MDA-MB-435
# [26] = system: ACHN renal
# [27] = system: MCF7 breast
# [28] = system: EKVX NSCLC
# [29] = system: HCC-2998 colon
# [30] = system: MOLT-4 leukemia
# [31] = system: NCI-H23 lung
# [32] = system: A498 renal
# [33] = system: HOP-92 NSCLC
# [34] = system: BT-549 breast
# [35] = system: OVCAR-8 ovarian
# [36] = system: HCT-116 colon
# [37] = system: NCI/ADR-RES ovarian
# [38] = system: 786-0 renal
# [39] = system: HOP-62 NSCLC
# [40] = system: DU-145 prostate
# [41] = system: UACC-257 melanoma
# [42] = system: NCI-H522 lung
# [43] = system: RPMI-8226 leukemia
# [44] = system: MDA-MB-231 breast
# [45] = system: SK-OV-3 ovarian
# [46] = system: K-562 leukemia
# [47] = system: NCI-H460 lung
# [48] = system: SF-539 CNS
# [49] = system: IGROV1 ovarian
# [50] = system: SK-MEL-28 melanoma
# [51] = system: SNB-75 CNS
# [52] = system: LOX IMVI melanoma
# [53] = system: OVCAR-4 ovarian
# [54] = system: U251 CNS
# [55] = system: UO-31 renal
# [56] = system: OVCAR-5 ovarian
# [57] = system: SNB-19 CNS
# [58] = system: NCI-H226 lung
# [59] = system: HL-60(TB) leukemia
structure (smiles),measurement,setting,value
CC(C)(C)c1c2c(c(C(C)(C)C)c3c1OCN(Cc1ccccc1)C3)OCN(Cc1ccccc1)C2,TGI,[1],38 µM
same,TGI,[2],33.3 µM
same,TGI,[3],36.2 µM
same,TGI,[4],37.6 µM
same,TGI,[5],> 100 µM
same,TGI,[6],29 µM
same,TGI,[7],> 100 µM
same,TGI,[8],26.6 µM
same,TGI,[9],51.5 µM
same,TGI,[10],> 100 µM
same,TGI,[11],30.3 µM
same,TGI,[12],39.8 µM
same,TGI,[13],> 100 µM
same,TGI,[14],21 µM
same,TGI,[15],32.4 µM
same,TGI,[16],55.9 µM
same,TGI,[17],53.2 µM
same,TGI,[18],51.6 µM
same,TGI,[19],43.1 µM
same,TGI,[20],57.8 µM
same,TGI,[21],38.7 µM
same,TGI,[22],35.6 µM
same,TGI,[23],34.9 µM
same,TGI,[24],32.5 µM
same,TGI,[25],> 100 µM
same,TGI,[26],51.1 µM
same,TGI,[27],61.6 µM
same,TGI,[28],41.5 µM
same,TGI,[29],22.3 µM
same,TGI,[30],50.4 µM
same,TGI,[31],27.4 µM
same,TGI,[32],20.6 µM
same,TGI,[33],28.1 µM
same,TGI,[34],39.4 µM
same,TGI,[35],77.3 µM
same,TGI,[36],24.4 µM
same,TGI,[37],41 µM
same,TGI,[38],27.7 µM
same,TGI,[39],53.5 µM
same,TGI,[40],59.7 µM
same,TGI,[41],29.1 µM
same,TGI,[42],23.2 µM
same,TGI,[43],44.6 µM
same,TGI,[44],29.3 µM
same,TGI,[45],> 100 µM
same,TGI,[46],54.5 µM
same,TGI,[47],28.7 µM
same,TGI,[48],31 µM
same,TGI,[49],45.1 µM
same,TGI,[50],> 100 µM
same,TGI,[51],> 100 µM
same,TGI,[52],31.5 µM
same,TGI,[53],> 100 µM
same,TGI,[54],29.6 µM
same,TGI,[55],35.4 µM
same,TGI,[56],39 µM
same,TGI,[57],34.7 µM
CN(c1cn(C2CC[C@@H](CO)O2)c(=O)[nH]c1=O)C1CCCCC1 (some centres not stated),TGI,[1],> 100 µM
same,TGI,[2],> 100 µM
same,TGI,[3],> 100 µM
same,TGI,[4],> 100 µM
same,TGI,[5],> 100 µM
same,TGI,[6],> 100 µM
same,TGI,[8],> 100 µM
same,TGI,[10],> 100 µM
same,TGI,[11],> 100 µM
same,TGI,[12],> 100 µM
same,TGI,[13],> 100 µM
same,TGI,[14],> 100 µM
same,TGI,[15],> 100 µM
same,TGI,[16],> 100 µM
same,TGI,[17],> 100 µM
same,TGI,[18],> 100 µM
same,TGI,[19],> 100 µM
same,TGI,[20],> 100 µM
same,TGI,[21],> 100 µM
same,TGI,[22],> 100 µM
same,TGI,[23],> 100 µM
same,TGI,[24],> 100 µM
same,TGI,[25],> 100 µM
same,TGI,[26],> 100 µM
same,TGI,[27],> 100 µM
same,TGI,[29],> 100 µM
same,TGI,[58],> 100 µM
same,TGI,[30],> 100 µM
same,TGI,[31],> 100 µM
same,TGI,[32],> 100 µM
same,TGI,[33],> 100 µM
same,TGI,[34],> 100 µM
same,TGI,[35],> 100 µM
same,TGI,[36],> 100 µM
same,TGI,[37],> 100 µM
same,TGI,[38],> 100 µM
same,TGI,[39],> 100 µM
same,TGI,[59],> 100 µM
same,TGI,[40],> 100 µM
same,TGI,[42],> 100 µM
same,TGI,[43],> 100 µM
same,TGI,[44],> 100 µM
same,TGI,[45],> 100 µM
same,TGI,[46],> 100 µM
same,TGI,[47],> 100 µM
same,TGI,[48],> 100 µM
same,TGI,[49],> 100 µM
same,TGI,[50],> 100 µM
same,TGI,[51],> 100 µM
same,TGI,[52],> 100 µM
same,TGI,[53],> 100 µM
same,TGI,[54],> 100 µM
same,TGI,[55],> 100 µM
same,TGI,[56],> 100 µM
same,TGI,[57],> 100 µM
